Read-outs that look alike come from different tables or passages of the source.
Legend:
[1] = tested on: mechanical allodynia in STZ-induced DPN rats; test: Prevention of neuropathic pain in STZ-induced rat model of DPN, paw withdrawal threshold (von Frey filaments); type: in vivo; details: prevention protocol; for von Frey, gm mean ± SEM (PWT): PS 8% hydrogel or sulindac 0.7% hydrogel topical 3 times a day from day -2 to day 28, lidocaine 5% cream once 30 min before PWT, PWT on day 28; for effect on PWT compared to vehicle (prevention study): day 28, result in words
Source text: DPN was induced via chemically-induced increases in blood glucose in rats, using streptozotocin (STZ).
The animal model corresponds to that used for Example 1, but using a prevention protocol. As in Example 1, the outcome measure, determining the effect of the treatment on the prevention of mechanical allodynia, was the PWT test, using von Frey filaments. The measurements were taken at day −3, before treatment or induction of neuropathic pain associated with DPN, and again at the end of the study period (day 28).
The rats were randomised into treatment groups as follows, all having an average body weight of about 225 g. • 1. Group 1: naïve rats (n=6) • 2. Group 2: STZ only (n=8) • 3. Group 3: STZ plus vehicle (n=8) • 4. Group 4: STZ plus PS 8% (n=8) • 5. […] Group 6: STZ plus lidocaine cream 5% (n=8)
Each treatment group was subjected to a PWT assessment at day −3 in order to determine the baseline of mechanical allodynia. […] For those rats in the lidocaine treatment group, lidocaine cream was applied only once to both hind paws of the rats 30 min before the final PWT measurement on day 28. On day 0, neuropathic pain associated with DPN was induced with the administration of STZ, and the blood glucose was checked on day 3. Four weeks after the administration of STZ, to provide sufficient time to allow the neuropathic pain associated with DPN (manifested as mechanical allodynia) to develop (see the STZ only group in FIG. 5), the rats were subjected to the paw withdrawal threshold test.

[2] = tested on: mechanical allodynia in STZ-induced DPN rats; test: Treatment of neuropathic pain in STZ-induced rat model of DPN, paw withdrawal threshold (von Frey filaments); type: in vivo, Sprague-Dawley rats; details: for effect on PWT compared to vehicle (treatment study): established DPN, result in words
Experimental: DPN was induced via chemically-induced increases in blood glucose in rats, using streptozotocin (STZ). This is a well-established model for DPN (see Morrow, Current Protocols in Neuroscience (2004); 29(1): 1-11), in which the STZ, an antibiotic extract from Streptomyces acromogenes, selectively damages the β cells of the pancreas.
Sprague-Dawley rats were fasted for 4-6 hours before being injected intraperitoneally with 45 mg/kg STZ. This was performed for all experimental groups, except the naïve group. In order to prevent hypoglycaemic death, rats received 10% sucrose water as the sole water source for the first 48 hours after injection. In order to ensure only those rats considered diabetic (i.e., having non-fasting plasma glucose levels of >250 mg/dL) were included in the study, blood glucose was measured at 72 hours after the STZ injection.
This delay between STZ injection and treatment allows the establishment of chronic pain (allodynia) associated with peripheral and central sensitisation. PS (as an 8% hydrogel) or vehicle control were administered topically to both hind paws of the rats 3 times a day for 3 weeks starting at week 4 after STZ injection. […] 5% lidocaine cream (a positive control) was applied only once to both hind paws of the rats 30 minutes before measurement of PWT.
The rats were split into 8 study groups, with those in the experimental groups (1-4) having an average body weight of about 225 g, and those in the control groups (5-8) having an average body weight of about 335 g, as follows: • 1. Group 1: naïve rats (n=5) • 2. Group 2: STZ only (n=6) • 3. Group 3: STZ plus vehicle (n=6) • 4. Group 4: STZ plus PS (8% hydrogel) (n=7) • 5. Group 5: STZ plus oral vehicle (n=8) • 6. […] Group 7: STZ plus 5% lidocaine cream (n=8) • 8.
In order to determine the outcome of the treatment, mechanical allodynia was measured using the well-established method of von Frey filaments. In particular, a simplified up-down method for estimating paw withdrawal threshold (PWT) using von Frey filaments was used (as described in Bonin et al., Molecular Pain (2014); 10(26):1-10)). The results of the PWT test are expressed as force applied (gm).

[3] = Pharmacokinetics and biodistribution of PS and its metabolites after topical administration to hind paws; details: for AUC0-24h of PS / Tmax of PS / T1/2 of PS / Cmax: 50 μl per hind paw; for Cmax: read-out: Cmax of PS, mean ± SEM
Experimental: PS 8% ointment was applied topically to each hind paw (50 μl per paw) with gentle rubbing. At 0.5, 1, 3, 5, 12, 18, and 24 h, mice (n=4-5 mice/time point) were euthanized with CO2 inhalation. Blood was drawn immediately after death. Tissues, including paw skin, paw muscle, leg muscle, the sciatic nerve and lumbar DRG bilaterally were dissected quickly, immediately frozen in liquid nitrogen and stored at −80° C. until analyzed.
Following addition of acetonitrile (twice the volume of the homogenate), the mixture was sonicated for 10 min, centrifuged at 13,200 rpm for 15 min, and analyzed by HPLC, as reported (Wen et al., 2019).
Since the metabolism and PK/biodistribution of PS vary depending on its route of administration, we studied both in normal mice in which PS was administered topically to their hind paws, with particular attention to the sciatic nerve and the dorsal root ganglia (DRG) that are affected in DPN.

[4] = treatment protocol from week 4, sulindac 0.7% hydrogel topical 3 times a day for 1 week (PWT week 5), lidocaine 5% cream once 30 min before PWT, pregabalin 10 mg/kg oral once 1 h before PWT
[5] = dorsal root ganglia (DRG), normal mice, PS 8% ointment topical
[6] = leg muscle, normal mice, PS 8% ointment topical
[7] = paw muscle, normal mice, PS 8% ointment topical
[8] = paw skin, normal mice, PS 8% ointment topical
[9] = sciatic nerve (SN), normal mice, PS 8% ointment topical

For `CC1=C(CC(=O)O)c2cc(F)ccc2/C1=C\c1ccc([S+](C)[O-])cc1` (stereo not drawn) [sulindac], the “von Frey, gm mean ± SEM (PWT)” value [1] was 27.7 ± 1.4 gm, the “effect on PWT compared to vehicle (prevention study)” value [1] was “no significant effect on PWT compared to the vehicle” and the “effect on PWT compared to vehicle (treatment study)” value [2] was “failed to suppress the reduced PWT caused by STZ”. For the same molecule, the “PWT, gm Mean ± SEM” value [2, 4] was 23.2 ± 2.6 gm.

In the case of `CCN(CC)CC(=O)Nc1c(C)cccc1C` [lidocaine], the “von Frey, gm mean ± SEM (PWT)” value [1] is reported as 34.3 ± 1.6 gm, the “effect on PWT compared to vehicle (prevention study)” value [1] is reported as “significantly increased the PWT compared to vehicle” and the “effect on PWT compared to vehicle (treatment study)” value [2] is reported as “significant increases in PWT compared to vehicle”. The “PWT, gm Mean ± SEM” value [2, 4] was 26.0 ± 1.8 gm.

With `CC(C)C[C@H](CN)CC(=O)O` [pregabalin] the “effect on PWT compared to vehicle (treatment study)” value [2] was “significant increases in PWT compared to vehicle”.

For phosphosulindac [PS], the “PS in the systemic circulation” value ([3]; blood, normal mice, PS 8% ointment topical, limit of quantitation 0.1 μM) was “no PS was detected”, the “AUC0-24h of PS” value [3, 5] was 4.5 µM·h and the “Tmax of PS” value [3, 5] was 18 h. For the same molecule, the “AUC0-24h of PS” value [3, 6] was 171.6 µM·h, the “T1/2 of PS” value [3, 6] was 20.6 h and the “Tmax of PS” value [3, 6] was 0.5 h. For the same molecule, the “Tmax of PS in all tissues with the exception of DRG” value ([3]; normal mice, PS 8% ointment topical) was 0.5 h, the “AUC0-24h of PS” value [3, 7] was 411.2 µM·h and the “T1/2 of PS” value [3, 7] was 11.4 h. The “Tmax of PS” value [3, 7] was 0.5 h, the “AUC0-24h of PS” value [3, 8] was 1,609.8 μM · h and the “T1/2 of PS” value [3, 8] was 16.1 h. The “Tmax of PS” value [3, 8] was 0.5 h, the “t1/2 of PS in the skin and the muscles” value ([3]; range over paw skin, paw muscle, leg muscle, normal mice, PS 8% ointment topical) was 11.4 to 20.6 h and the Cmax [3, 5] was 0.3 ± 0.1 µM. For the same molecule, the Cmax [3, 6] was 35 ± 3.6 µM, the Cmax [3, 7] was 102 ± 4.6 µM and the Cmax [3, 8] was 195 ± 5.3 µM. The Cmax [3, 9] was 0.9 ± 0.1 µM, the “AUC0-24h of PS” value [3, 9] was 12.0 µM·h and the “T1/2 of PS” value [3, 9] was 57.4 h. For the same molecule, the “Tmax of PS” value [3, 9] was 0.5 h, the “von Frey, gm mean ± SEM (PWT)” value [1] was 33.1 ± 1.6 gm and the “effect on PWT compared to vehicle (prevention study)” value [1] was “significant increase in PWT compared to vehicle”. For the same molecule, the “effect on PWT compared to vehicle (treatment study)” value [2] was “significant increase in PWT compared to vehicle and STZ” and the “PWT, gm Mean ± SEM” value ([2]; treatment protocol, PS 8% hydrogel topically to both hind paws 3 times a day for 3 weeks from week 4 after STZ, PWT at week 7, 30 min after last treatment) was 22.5 ± 2.20 gm.

For `CC1=C(CC(=O)O)c2cc(F)ccc2/C1=C\c1ccc(S(C)(=O)=O)cc1` [sulindac sulfone], the “detection as metabolite of PS” value ([3]; mouse tissues and blood after PS 8% ointment topical, HPLC, limit of quantitation 0.05 μM) was “detected”.
